{"source": "patent EP0129628A1", "about": "“Medicine, especially useful in psychiatry, which uses as the active constituent a lithium N-alkylcarbamoyl phosphate” (Richard, Marcel, priority 1983, dated 1985)", "key": {"test plaque chaude": {"test_system": "test plaque chaude", "assay": "comparative analgesic activity (hot plate test)", "type": "in vivo, souris et/ou des chiens", "conditions": "dose de 13 MEq par kilo"}, "sécrétion de sérotonine": {"test_system": "sécrétion de sérotonine", "assay": "test on serotonin secretion", "type": "in vivo, souris et/ou des chiens"}, "[1]": {"test_system": "systèmes dopaminer- gines", "assay": "test evaluating blockade of the dopaminergic systems", "type": "in vivo, souris et/ou des chiens"}, "motilité": {"test_system": "motilité", "assay": "motility test", "type": "in vivo, souris et/ou des chiens", "conditions": "dose de 13,5 MEq par kilo (carbonate de lithium: dose correspondante)"}, "[2]": {"test_system": "agressivité induite par des chocs électriques", "assay": "aggressiveness induced by electric shocks", "type": "in vivo, souris et/ou des chiens"}, "[3]": {"test_system": "convulsions produites par un électrochoc", "assay": "convulsions produced by electroshock", "type": "in vivo, souris et/ou des chiens", "conditions": "dose de 5 MEq par kilo"}, "[4]": {"assay": "acute toxicity (DL50), oral route", "conditions": "mouse, in vivo, souris, par voie orale", "protocol": "L'invention concerne enfin les médicaments qui contiennent au moins un produit de formule (1). Il a été trouvé en effet que les produits de formule (1) avaient une toxicité faible (la DL50 pour la souris et pour le produit de formule 1 dans lequel R est CH3 étant environ 3 200 mg/kg par voie orale) et une activité pharmacologique qui peut s'exprimer comme suit : • - diminution et/ou blocage des systèmes dopaminer- giques, • - augmentation, au moins transitoire, de la systhè- se de la sérotonine, • - pouvoir analgésique, les conséquences de ces actions se retrouvant dans les constatations suivantes : • - diminution de l'agressivité, • - diminution de la motilité et de la curiosité, • - protection contre les convulsions."}}}
{"smiles": "O=C(O)O", "note": "[carbonate de lithium, reference compound]", "values": [{"measurement": "protection", "setting": "test plaque chaude", "result": 27, "unit": "%"}, {"measurement": "dose active après 24 heures", "setting": "sécrétion de sérotonine", "result": 10, "unit": "MEq par kilo"}, {"measurement": "dose active à 50 %", "setting": "[1]", "result": "10,115 MEq par kilo"}, {"measurement": "la motilité baisse", "setting": "motilité", "result": 12, "unit": "%"}]}
{"smiles": "CNC(=O)OP(=O)(O)O", "note": "[N-méthyl-carbamoylphosphate de lithium]", "values": [{"measurement": "protection", "setting": "test plaque chaude", "result": 42, "unit": "%"}, {"measurement": "dose active après 24 heures", "setting": "sécrétion de sérotonine", "result": "6,75 MEq par kilo"}, {"measurement": "dose active à 100 %", "setting": "[1]", "result": "6,75 MEq par kilo"}, {"measurement": "dose active", "setting": "[2]", "result": 10, "unit": "MEq par kilo"}, {"measurement": "protection des sujets", "setting": "[3]", "result": 40, "unit": "%"}, {"measurement": "la motilité baisse", "setting": "motilité", "result": 36, "unit": "%"}, {"measurement": "LD50", "setting": "[4]", "result": "~3200", "unit": "mg/kg"}]}
